# From ChEMBL document CHEMBL1933022, “Synthetic studies of bi-fluorescence-labeled maltooligosaccharides as substrates for α-amylase on the basis of fluorescence resonance energy transfer (FRET)” (Bioorg Med Chem, 2012)
# Activity calls are given as the source filed them. The rule behind the calls is not given here.
# Target: T1, Alpha-amylase 1A (Homo sapiens) (UniProt P0DUB6)
# T1 sequence (whole entry): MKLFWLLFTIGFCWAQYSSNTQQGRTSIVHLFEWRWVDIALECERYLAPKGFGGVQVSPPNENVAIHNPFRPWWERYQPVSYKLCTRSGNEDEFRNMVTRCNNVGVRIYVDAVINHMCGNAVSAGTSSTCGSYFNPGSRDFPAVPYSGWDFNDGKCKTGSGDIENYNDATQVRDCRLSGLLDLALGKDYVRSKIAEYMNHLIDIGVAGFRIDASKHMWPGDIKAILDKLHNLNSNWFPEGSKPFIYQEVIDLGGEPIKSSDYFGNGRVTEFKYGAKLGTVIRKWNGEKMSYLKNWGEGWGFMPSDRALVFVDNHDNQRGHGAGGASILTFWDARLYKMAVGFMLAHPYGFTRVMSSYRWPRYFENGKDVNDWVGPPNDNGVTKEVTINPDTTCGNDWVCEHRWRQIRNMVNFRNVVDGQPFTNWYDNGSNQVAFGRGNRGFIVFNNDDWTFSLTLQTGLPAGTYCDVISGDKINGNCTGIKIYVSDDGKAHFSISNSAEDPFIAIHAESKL
# Experiment: Activity of human saliva alpha-amylase assessed as decrease in fluorescence intensity measured for every 3 mins for 30 mins by FRET analysis
row,Activity,Compound
1,Active,CN(C)c1cccc2c(S(=O)(=O)NCCSCCCCCS[C@@H]3O[C@H](CO)[C@@H](O[C@H]4O[C@H](CO)[C@@H](O[C@H]5O[C@H](CO)[C@@H](O[C@H]6O[C@H](CO)[C@@H](O[C@H]7O[C@H](CO)[C@@H](O[C@H]8O[C@H](COCc9ccc%10ccccc%10c9)[C@@H](O)[C@H](O)[C@H]8O)[C@H](O)[C@H]7O)[C@H](O)[C@H]6O)[C@H](O)[C@H]5O)[C@H](O)[C@H]4O)[C@H](O)[C@H]3O)cccc12
2,inactive,CN(C)c1cccc2c(S(=O)(=O)NCCSCCCCCS[C@@H]3O[C@H](CO)[C@@H](O[C@H]4O[C@H](CO)[C@@H](O[C@H]5O[C@H](COCc6ccc7ccccc7c6)[C@@H](O)[C@H](O)[C@H]5O)[C@H](O)[C@H]4O)[C@H](O)[C@H]3O)cccc12
3,inactive,CN(C)c1cccc2c(S(=O)(=O)NCCSCCCCCS[C@@H]3O[C@H](CO)[C@@H](O[C@H]4O[C@H](COCc5ccc6ccccc6c5)[C@@H](O)[C@H](O)[C@H]4O)[C@H](O)[C@H]3O)cccc12
4,Active,CN(C)c1cccc2c(S(=O)(=O)NCCSCCCCCS[C@@H]3O[C@H](CO)[C@@H](O[C@H]4O[C@H](CO)[C@@H](O[C@H]5O[C@H](CO)[C@@H](O[C@H]6O[C@H](COCc7ccc8ccccc8c7)[C@@H](O)[C@H](O)[C@H]6O)[C@H](O)[C@H]5O)[C@H](O)[C@H]4O)[C@H](O)[C@H]3O)cccc12
5,Active,CN(C)c1cccc2c(S(=O)(=O)NCCSCCCCCS[C@@H]3O[C@H](CO)[C@@H](O[C@H]4O[C@H](CO)[C@@H](O[C@H]5O[C@H](CO)[C@@H](O[C@H]6O[C@H](CO)[C@@H](O[C@H]7O[C@H](COCc8ccc9ccccc9c8)[C@@H](O)[C@H](O)[C@H]7O)[C@H](O)[C@H]6O)[C@H](O)[C@H]5O)[C@H](O)[C@H]4O)[C@H](O)[C@H]3O)cccc12
6,Active,CN(C)c1cccc2c(S(=O)(=O)NCCSCCCCCS[C@@H]3O[C@H](CO)[C@@H](O[C@H]4O[C@H](CO)[C@@H](O[C@H]5O[C@H](CO)[C@@H](O[C@H]6O[C@H](CO)[C@@H](O[C@H]7O[C@H](CO)[C@@H](O[C@H]8O[C@H](CO)[C@@H](O[C@H]9O[C@H](COCc%10ccc%11ccccc%11c%10)[C@@H](O)[C@H](O)[C@H]9O)[C@H](O)[C@H]8O)[C@H](O)[C@H]7O)[C@H](O)[C@H]6O)[C@H](O)[C@H]5O)[C@H](O)[C@H]4O)[C@H](O)[C@H]3O)cccc12
